Tests used:
[1] = tested on: catecholamine transport; assay: Catecholamine (3H-dopamine) transport in chromaffin granule membranes; format: biochemical, bovine
Procedure: Chromaffin granule membranes were prepared from adrenal glands collected from slaughtered cattle according to Reference A (Nathan Nelson et al., 1988, Chromaffin Granule Proton Pump, Methods in Enzymology, 157, 619-633). Chromaffin granule membranes prepared by sucrose density gradient centrifugation were suspended in 2 ml of SME buffer (20 mM MOPS-tris (pH 7.0), 0.3 M sucrose, 5 mM EDTA, 10 µg/ml leupeptin, and 10 µg/ml pepstatin) + 25% glycerol, and the resulting suspension was aliquoted and stored at -80°C. Under these conditions, the ATP transport activity, the V-ATPase activity, and the catecholamine transport activity remain fully active for at least one year.
A catecholamine transport inhibition experiment was carried out in the same manner as the ATP transport experiment except that the experiment used a measurement liquid containing 20 mM MOPS-tris (pH 7.0), 0.1 M sucrose, 0.1 M potassium chloride, 5 mM magnesium acetate, and about 5 µg of chromaffin granule membranes. To 0.5 ml of the measurement liquid, 2 mM ATP was added, and the resulting mixture was incubated at 30°C for about 5 minutes, followed by addition of^3 [H]-dopamine thereto to a final concentration of 10 µM. After further incubation at 30°C for 15 minutes, 0.2 ml of the reaction liquid was subjected to suction filtration through a Millipore MCE membrane filter with a pore size of 0.45 µm, and the radioactivity on the filter was measured (N = 3). The substrate, ^3[H]-dopamine, was prepared by mixing 3,4-[RING-2,5,6-^3H]dihydroxyphenylethylamine (dopamine) (30 Ci/mmol) (manufactured by New England Nuclear) with dopamine hydrochloride (manufactured by LKT Laboratories) such that a final concentration of 0.1 mM was achieved during the use.
Chromaffin granule membrane vesicles were prepared in the same manner as in Example 5, and uptake of radiolabeled ATP into the vesicles was measured. Transport activity of catecholamine (dopamine) and ATP-dependent proton transport by V-ATPase were also measured in the same manner as in Example 5.

[2] = tested on: imiquimod-induced psoriasis relapse; assay: Imiquimod-induced psoriasis relapse model; format: in vivo, mice; settings: imeglimin 40 mg/kg orally, alternate days Day 8 to 22, then daily from Day 23; compared to IMQ
Procedure: To the left auricle of each mouse, 62.5 mg of 5% imiquimod cream (Beselna Cream 5%) was applied once daily a total of seven times (Days 1 to 7) in accordance with Example 19 to induce imiquimod-induced psoriasis. Thereafter, the imiquimod treatment was interrupted, and imeglimin (40 mg/kg) was orally administered on alternate days for 2 weeks (Day 8 to 22) (IMG). Mice without administration of imeglimin were designated IMQ. On Day 23, the imiquimod treatment was resumed, and 62.5 mg of 5% imiquimod cream (Beselna Cream 5%) was applied once daily a total of […]. In parallel, imeglimin (40 mg/kg) was orally administered daily to IMG.

SMILES | inhibition of catecholamine transport ([1]; concentrations of up to 5 mM, data not shown) | ATP-dependent dopamine transport activity ([1]; in the presence of 5 mM PEP, control 11.07 ± 0.129, N = 3) [nmol/mg protein] | psoriatic symptoms (auricular thickness) after resumed imiquimod treatment [2]
C=C(OP(=O)(O)O)C(=O)O [PEP, phosphoenolpyruvic acid] | did not inhibit | 12.41 ± 0.250 | 
C[C@H]1N=C(N(C)C)N=C(N)N1 [imeglimin] |  |  | markedly reduced
